Measurements published in patent US20120040464A1, “METHOD FOR GENERATING HOMOPLASMIC CELLS FROM HETEROPLASMIC CELLS” (NATIONAL CENTER OF NEUROLOGY AND PSYCHIATRY, priority 2009, published 2012).

System: MELAS cells (primary culture cells from the skeletal muscle and skin of MELAS patients)
Settings: 100 μM, 30 minutes
Experimental: MELAS cells were plated to result in a cell density of 1×10^5 to 1×10^6 cells/mL in the presence of DMEM containing 10% FCS, and they were then cultured at 37° C. in a 5% CO2 atmosphere for 3 days. After completion of the culture for 3 days, when the cell density reached 5×10^5 to 6×10^6 cells/mL, the cells were diluted by a factor of 10^4 to 1.2×10^5. The resultant cells were plated and were further cultured for 15 days. After completion of the culture for 15 days, several single colonies of cells were selected, and DNA was then extracted by a common method. Using the extracted DNA sample as a template, PCR was carried out with a primer pair for amplifying a site around the nucleotide at position 3243 of the mtDNA. Thereafter, the PCR product was treated with ApaI. In the case of normal mtDNA, the sequence around the nucleotide at position 3243 is GAGCCC (wherein the underlined portion corresponds to the nucleotide at position 3243). […] Accordingly, it becomes possible to evaluate the heteroplasmic state of the cells by calculating the ratio of the 182-bp and 112-bp bands to the 294-bp bands (see Goto et al., Nature, 348, 651-653, 1990 for the details of this method).
Thereafter, the cells were washed with PBS three times, and were then cultured for 3 days. After completion of the culture for 3 days, when the cell density reached 5×10^5 to 6×10^6 cells/mL, the cells were diluted by a factor of 10^4 to 1.2×10^5. The resultant cells were plated and were further cultured for 15 days. After completion of the culture for 15 days, several single colonies of cells were selected, and DNA was then extracted by a common method. The intracellular percentage of the A3243G substitution mutation of mtDNA was examined with respect to the obtained DNA samples by the same method as described above.

SMILES: OO [hydrogen peroxide]
- percentage of A3243G substitution mutation in cell clones obtained after a hydrogen peroxide treatment (then 3 days and 15 days culture, single-colony clones with decreased percentage, e.g. clone 16, clone 25): ~0%
- percentage of A3243G substitution mutation in clones where it became higher than without hydrogen peroxide treatment (e.g. clones 15, 27, 29, 32, 34, 35, 36, 39, untreated 30%): > 30%
- effect of treatment on homoplasmic state of the cells (MELAS cells): promotes the conversion of the cells to a homoplasmic state
